Assay results published in US20250195530A1, “POLQ INHIBITORS” (ASTRAZENECA AB, priority 2022, published 2025).

What was measured:
DLD-1 BRCA2−/− cells = assay: Homologous recombination synthetic lethal inhibition of proliferation, DLD-1 BRCA2-/- (Cell Titre Glo 3D); format: cell-based; conditions: Homo sapiens, DLD-1, 288 h, DLD-1 BRCA2−/− cells, 12 days; read-out: POLQ PD Prolif Lumin BRCA2 −/− mean pIC50 (converted)
Procedure, shortened: (§1)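 Isogenic DLD-1 pair; BRCA2−/− seeded 3,000 cells/mL and read day 12, wt seeded 1,500 cells/mL and read day 7. 10-pt titration (top 10 μM, 3-fold), re-fed with compound day 6, 37 °C/5% CO2. CTG 3D endpoint; IC50 at 50% signal loss.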

DLD-1 cells = assay: Inhibition of proliferation, DLD-1 BRCA2 wt control (Cell Titre Glo 3D); format: cell-based; conditions: Homo sapiens, DLD-1, 168 h, DLD-1 BRCA2 wt cells, 7 days; read-out: POLQ PD Prolif Lumin DLD1 mean pIC50 (converted)
Procedure, shortened: as §1

Row | Compound | IC50 (DLD-1 BRCA2−/− cells) [nM] | IC50 (DLD-1 cells) [µM]
1 | Cc1cc(OCCN)ncc1-c1nc2c(OC3(C)CC3)ncnc2n1Cc1ccccc1 [Example G8, 2-((5-(9-benzyl-6-(1-methylcyclopropoxy)-9H-purin-8-yl)-4-methylpyridin-2-yl)oxy)ethan-1-amine] | 2000 | 7.94
2 | Cc1cc(OCCCN)ncc1-c1nc2c(OC3(C)CC3)ncnc2n1Cc1ccccc1 [Example G9, 3-((5-(9-benzyl-6-(1-methylcyclopropoxy)-9H-purin-8-yl)-4-methylpyridin-2-yl)oxy)propan-1-amine] | 794 | 1.58
3 | CC(=O)N1CC(Oc2cc(C)c(-c3nc4c(OC5(C)CC5)ncnc4n3Cc3ccccc3)cn2)C1 [Example G10, 1-(3-((5-(9-benzyl-6-(1-methylcyclopropoxy)-9H-purin-8-yl)-4-methylpyridin-2-yl)oxy)azetidin-1-yl)ethan-1-one] | 631 | > 10
4 | Cc1cc(O[C@H]2CCNC2)ncc1-c1nc2c(OC3(C)CC3)ncnc2n1Cc1ccccc1 [Example G11, (S)-9-benzyl-8-(4-methyl-6-(pyrrolidin-3-yloxy)pyridin-3-yl)-6-(1-methylcyclopropoxy)-9H-purine] | 1260 | 6.31
5 | Cc1cc(OCCN(C)C)ncc1-c1nc2c(OC3(C)CC3)ncnc2n1Cc1ccccc1 [Example G12, 2-((5-(9-benzyl-6-(1-methylcyclopropoxy)-9H-purin-8-yl)-4-methylpyridin-2-yl)oxy)-N,N-dimethylethan-1-amine] | 316 | > 10
6 | Cc1cc(O[C@H]2CCCNC2)ncc1-c1nc2c(OC3(C)CC3)ncnc2n1Cc1ccccc1 [Example G13, (S)-9-benzyl-8-(4-methyl-6-(piperidin-3-yloxy)pyridin-3-yl)-6-(1-methylcyclopropoxy)-9H-purine] | 501 | > 10
7 | Cc1c(-c2nc3c(OC4(C)CC4)ncnc3n2Cc2ccccc2)ccnc1OCCN1CCNCC1 [Example G14, 9-benzyl-8-(3-methyl-2-(2-(piperazin-1-yl)ethoxy)pyridin-4-yl)-6-(1-methylcyclopropoxy)-9H-purine] | 794 | 7.94
8 | Cc1cc(OC[C@H]2CNCCO2)ncc1-c1nc2c(OC3(C)CC3)ncnc2n1Cc1ccccc1 [Example G15, (R)-2-(((5-(9-benzyl-6-(1-methylcyclopropoxy)-9H-purin-8-yl)-4-methylpyridin-2-yl)oxy)methyl)morpholine] | 398 | > 10
9 | Cc1cc(OC[C@H]2COCCN2)ncc1-c1nc2c(OC3(C)CC3)ncnc2n1Cc1ccccc1 [Example G16, (R)-3-(((5-(9-benzyl-6-(1-methylcyclopropoxy)-9H-purin-8-yl)-4-methylpyridin-2-yl)oxy)methyl)morpholine] | 794 | > 10
10 | CN1CCN(CCOc2cc(F)c(-c3nc4c(OC5(C)CC5)ncnc4n3Cc3ccccc3)c(F)c2)CC1 [Example H1, 9-benzyl-8-(2,6-difluoro-4-(2-(4-methylpiperazin-1-yl)ethoxy)phenyl)-6-(1-methylcyclopropoxy)-9H-purine] | 200 | 3.98
11 | CN1CCN(CCOc2ccc(-c3nc4c(OC5(C)CC5)ncnc4n3Cc3ccccc3)c(F)c2)CC1 [Example H2, 9-benzyl-8-(2-fluoro-4-(2-(4-methylpiperazin-1-yl)ethoxy)phenyl)-6-(1-methylcyclopropoxy)-9H-purine] | 126 | 3.16
12 | COc1cc(OCCN2CCN(C)CC2)ccc1-c1nc2c(OC3(C)CC3)ncnc2n1Cc1ccccc1 [Example H3, 9-benzyl-8-(2-methoxy-4-(2-(4-methylpiperazin-1-yl)ethoxy)phenyl)-6-(1-methylcyclopropoxy)-9H-purine] | 631 | 7.94
13 | Cc1cc(OCCN2CCN(C)CC2)cc(C)c1-c1nc2c(OC3(C)CC3)ncnc2n1Cc1ccccc1 [Example H4, 9-benzyl-8-(2,6-dimethyl-4-(2-(4-methylpiperazin-1-yl)ethoxy)phenyl)-6-(1-methylcyclopropoxy)-9H-purine] | 251 | > 10
14 | CN1CCN(CCOc2ccc(-c3nc4c(OC5(C)CC5)ncnc4n3Cc3ccccc3)c(F)c2F)CC1 [Example H5, 9-benzyl-8-(2,3-difluoro-4-(2-(4-methylpiperazin-1-yl)ethoxy)phenyl)-6-(1-methylcyclopropoxy)-9H-purine] | 398 | 7.94
15 | CN1CCN(CCOc2ccc(-c3nc4c(OC5(C)CC5)ncnc4n3Cc3ccccc3)c(Br)c2)CC1 [Example H6, 9-benzyl-8-(2-bromo-4-(2-(4-methylpiperazin-1-yl)ethoxy)phenyl)-6-(1-methylcyclopropoxy)-9H-purine] | 63.1 | 5.01
16 | CN1CCN(CCOc2ccc(-c3nc4c(OC5(C)CC5)ncnc4n3Cc3cccnc3)c(Cl)c2)CC1 [Example H7, 8-(2-chloro-4-(2-(4-methylpiperazin-1-yl)ethoxy)phenyl)-6-(1-methylcyclopropoxy)-9-(pyridin-3-ylmethyl)-9H-purine] | 1000 | 3.16
17 | CN1CCN(CCOc2ccc(-c3nc4c(OC5(C)CC5)ncnc4n3Cc3ccccc3)c(C#N)c2)CC1 [Example H8, 2-(9-benzyl-6-(1-methylcyclopropoxy)-9H-purin-8-yl)-5-(2-(4-methylpiperazin-1-yl)ethoxy)benzonitrile] | 398 | > 10
18 | C#Cc1cc(OCCN2CCN(C)CC2)ccc1-c1nc2c(OC3(C)CC3)ncnc2n1Cc1ccccc1 [Example H9, 9-benzyl-8-(2-ethynyl-4-(2-(4-methylpiperazin-1-yl)ethoxy)phenyl)-6-(1-methylcyclopropoxy)-9H-purine] | 501 | 3.98
19 | CN1CCN(CCOc2ccc(-c3nc4c(OC5(C)CC5)ncnc4n3Cc3ccccc3)c(CO)c2)CC1 [Example H10, (2-(9-benzyl-6-(1-methylcyclopropoxy)-9H-purin-8-yl)-5-(2-(4-methylpiperazin-1-yl)ethoxy)phenyl)methanol] | 794 | > 10
20 | CC1(Oc2ncnc3c2nc(-c2ccc(OCCC(=O)O)cc2Cl)n3Cc2ccccc2)CC1 [Example H11, 3-(4-(9-benzyl-6-(1-methylcyclopropoxy)-9H-purin-8-yl)-3-chlorophenoxy)propanoic acid] | 1000 | > 10
21 | CC1(Oc2ncnc3c2nc(-c2ccc(OCCN4CCC[C@H]4C(=O)O)cc2Cl)n3Cc2ccccc2)CC1 [Example H12, (2-(4-(9-benzyl-6-(1-methylcyclopropoxy)-9H-purin-8-yl)-3-chlorophenoxy)ethyl)-L-proline] | 1000 | > 10
22 | CC1(Oc2ncnc3c2nc(-c2ccc(OCCN4CC[C@@H](O)C4)cc2Cl)n3Cc2ccccc2)CC1 [Example H13, (R)-1-(2-(4-(9-benzyl-6-(1-methylcyclopropoxy)-9H-purin-8-yl)-3-chlorophenoxy)ethyl)pyrrolidin-3-ol] | 100 | 3.16
23 | CC1(Oc2ncnc3c2nc(-c2ccc(OCCN4CC(O)C4)cc2Cl)n3Cc2ccccc2)CC1 [Example H14, 1-(2-(4-(9-benzyl-6-(1-methylcyclopropoxy)-9H-purin-8-yl)-3-chlorophenoxy)ethyl)azetidin-3-ol] | 126 | 6.31
24 | CC1(Oc2ncnc3c2nc(-c2ccc(OCCN4CCC(O)CC4)cc2Cl)n3Cc2ccccc2)CC1 [Example H15, 1-(2-(4-(9-benzyl-6-(1-methylcyclopropoxy)-9H-purin-8-yl)-3-chlorophenoxy)ethyl)piperidin-4-ol] | 79.4 | 1.58
25 | CC1(Oc2ncnc3c2nc(-c2ccc(OCCN4CC5(CC(O)C5)C4)cc2Cl)n3Cc2ccccc2)CC1 [Example H16, 2-(2-(4-(9-benzyl-6-(1-methylcyclopropoxy)-9H-purin-8-yl)-3-chlorophenoxy)ethyl)-2-azaspiro[3.3]heptan-6-ol] | 50.1 | 5.01
26 | CC1(Oc2ncnc3c2nc(-c2ccc(OCCCN4CC(O)C4)cc2Cl)n3Cc2ccccc2)CC1 [Example H17, 1-(3-(4-(9-benzyl-6-(1-methylcyclopropoxy)-9H-purin-8-yl)-3-chlorophenoxy)propyl)azetidin-3-ol] | 63.1 | 2
27 | CC1(Oc2ncnc3c2nc(-c2ccc(OCCN4CC5(CCN5)C4)cc2Cl)n3Cc2ccccc2)CC1 [Example H18, 8-(4-(2-(1,6-diazaspiro[3.3]heptan-6-yl)ethoxy)-2-chlorophenyl)-9-benzyl-6-(1-methylcyclopropoxy)-9H-purine] | 316 | 3.16
28 | C[C@H]1C(=O)NCCN1CCOc1ccc(-c2nc3c(OC4(C)CC4)ncnc3n2Cc2ccccc2)c(Cl)c1 [Example H19, (S)-4-(2-(4-(9-benzyl-6-(1-methylcyclopropoxy)-9H-purin-8-yl)-3-chlorophenoxy)ethyl)-3-methylpiperazin-2-one] | 63.1 | > 10
29 | CC1(Oc2ncnc3c2nc(-c2ccc(OCCN4CC5(C4)CS(=O)(=O)C5)cc2Cl)n3Cc2ccccc2)CC1 [Example H20, 6-(2-(4-(9-benzyl-6-(1-methylcyclopropoxy)-9H-purin-8-yl)-3-chlorophenoxy)ethyl)-2-thia-6-azaspiro[3.3]heptane 2,2-dioxide] | 100 | 3.98
30 | CC1(Oc2ncnc3c2nc(-c2ccc(OCCN4CCNC(=O)CC4)cc2Cl)n3Cc2ccccc2)CC1 [Example H21, 1-(2-(4-(9-benzyl-6-(1-methylcyclopropoxy)-9H-purin-8-yl)-3-chlorophenoxy)ethyl)-1,4-diazepan-5-one] | 63.1 | > 10
